Test results: patent publication US20080287398A1, “COLD MENTHOL RECEPTOR-1 ANTAGONISTS” (priority 2007, published 2008)
Values joined by “and” are separate entries in the source; they are usually repeats but may differ in a detail not shown here. Equal entries are not always repeated. Where two headings read alike, the source gives them in different places.

Molecular target: T1, canine TRPM8 (Canis lupus familiaris, UniProt Q1A7N1)
T1 construct: expressed in transfected cells
Experiment: In vitro canine TRPM8 functional assay (Ca2+-sensitive dye, FLIPR/FDSS, icilin activation)
Type: cell-based
Conditions: HEK293 cells expressing canine TRPM8, icilin activation; for % I (0.5 μM): 0.5 μM compound; for IC50: eight-point dose-response; for % I (1 μM): 1 μM compound; for % I (5 μM): 5 μM compound
Protocol: The functional activity of compounds of Formula (I) was determined by measuring changes in intracellular calcium concentration using a Ca^2+-sensitive fluorescent dye. The changes in fluorescent signal were monitored by a fluorescence plate reader, either a FLIPR™ (Molecular Devices) or FDSS (Hamamatsu).
HEK293 cells stably expressing canine TRPM8 were routinely grown as monolayers in Dulbecco's minimum essential medium supplemented with 10% FBS, 1 mM L-glutamine, 100 units/mL penicillin, 100 ug/mL streptomycin and 400 μg/mL G418. Cells were maintained in 5% CO2 at 37° C. At 24 hrs prior to assay, cells were seeded in clear-base poly-D-lysine coated 384-well plates (BD Biosciences, NJ, USA) at a density of 5,000 cells per well in culture medium and grown overnight in 5% CO2 at 37° C. On assay day, growth media was removed and cells were loaded with Calcium 3 Dye (Molecular Devices) for 35 min at 37° C., under 5% CO2 and then for 25 min at room temperature and atmosphere. Subsequently, cells were tested for agonist-induced increases in intracellular Ca^2+ levels using FLIPR™ or FDSS. Cells were challenged with a compound of Formula (I) (at varying concentrations) and intracellular Ca^2+ was measured for 5 min prior to the addition of icilin to all wells to achieve a final concentration which produces approximately an 80% maximal response.
Basal FI was subtracted prior to normalizing data to percent of maximal response. Curves were generated using the average of quadruplicate wells for each data point, were analyzed using nonlinear regression of either sigmoidal dose response or sigmoidal dose response (variable slope). Finally, the EC50 and IC50 values were calculated with the best-fit dose curve determined by GraphPad Prism.

[1] = HEK293, read-out: % I (1 μM), 1 μM compound
[2] = HEK293, read-out: % I (0.5 μM), 0.5 μM compound

T1 sequence (Q1A7N1 1-1104): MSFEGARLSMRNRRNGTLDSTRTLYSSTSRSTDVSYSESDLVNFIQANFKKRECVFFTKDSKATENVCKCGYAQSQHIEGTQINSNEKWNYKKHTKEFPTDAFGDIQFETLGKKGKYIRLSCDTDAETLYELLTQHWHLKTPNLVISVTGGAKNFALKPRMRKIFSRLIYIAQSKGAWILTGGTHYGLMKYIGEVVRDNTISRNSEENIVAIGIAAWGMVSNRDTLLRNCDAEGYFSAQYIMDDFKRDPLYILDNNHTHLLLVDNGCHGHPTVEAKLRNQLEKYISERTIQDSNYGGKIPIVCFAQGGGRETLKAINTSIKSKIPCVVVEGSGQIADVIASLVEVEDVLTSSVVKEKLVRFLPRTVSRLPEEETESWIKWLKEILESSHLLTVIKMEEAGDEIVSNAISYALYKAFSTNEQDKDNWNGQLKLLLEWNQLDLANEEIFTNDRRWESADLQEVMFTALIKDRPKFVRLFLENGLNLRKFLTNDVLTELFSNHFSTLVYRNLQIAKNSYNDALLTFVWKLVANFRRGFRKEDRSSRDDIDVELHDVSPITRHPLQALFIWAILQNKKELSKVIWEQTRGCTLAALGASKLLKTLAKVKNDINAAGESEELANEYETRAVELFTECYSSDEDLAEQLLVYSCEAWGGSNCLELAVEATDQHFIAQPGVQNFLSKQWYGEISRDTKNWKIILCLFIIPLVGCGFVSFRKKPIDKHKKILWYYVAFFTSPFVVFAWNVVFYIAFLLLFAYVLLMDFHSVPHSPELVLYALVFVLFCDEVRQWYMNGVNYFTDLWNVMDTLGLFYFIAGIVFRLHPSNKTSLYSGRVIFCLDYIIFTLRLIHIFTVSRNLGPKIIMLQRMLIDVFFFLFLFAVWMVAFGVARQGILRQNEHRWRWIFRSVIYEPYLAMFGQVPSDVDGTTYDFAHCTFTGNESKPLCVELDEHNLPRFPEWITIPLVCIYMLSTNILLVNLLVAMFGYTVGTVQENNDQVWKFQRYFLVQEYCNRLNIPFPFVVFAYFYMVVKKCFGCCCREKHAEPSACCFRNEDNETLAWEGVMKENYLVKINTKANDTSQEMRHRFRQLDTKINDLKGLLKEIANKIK

Compound | % I (0.5 μM) | IC50 (read-out: IC50) | other results
CCOP(=O)(OCC)C(Cc1cccc(C(F)(F)F)c1Cl)c1sc2ccccc2c1Cl (racemic) [Cpd 280] | 101% | 0.227 µM | –
CCOP(=O)(OCC)C(Cc1ccc(F)c(F)c1)c1c(C)c2ccccc2[s+]1[O-] (stereo not shown) [Cpd 118] | – | – | % I (1 μM): 23%
CC(C)OP(=O)(OC(C)C)C(Cc1ccc(F)c(F)c1)c1oc2cccc(F)c2c1Br (racemic) [Cpd 205] | – | 0.05 µM | % I (1 μM): 101%
CCOP(=O)(OCC)C(Cc1ccc(F)c(F)c1)c1sc2ccccc2c1-c1cccc(C(=O)OC)c1 (racemic) [Cpd 219] | 68% | – | –
CCOP(=O)(OCC)C(Cc1cccc(Cl)c1F)c1sc2ccccc2c1C (stereo not shown) [Cpd 23] | – | 0.096 µM | % I (1 μM): 100%
CCOP(=O)(OCC)C(Cc1cc(C(F)(F)F)cc(C(F)(F)F)c1)c1cc2ccccc2s1 (stereo not shown) [Cpd 96] | – | 0.64 µM | % I (1 μM): 92%
CC(C)OP(=O)(OC(C)C)C(Cc1cccc(C(F)(F)F)c1Cl)c1sc2ccccc2c1Cl (stereo not shown) [Cpd 177] | 96% | 0.139 µM | –
CC(C)OP(=O)(OC(C)C)C(Cc1ccc(F)c(F)c1)c1cc2ccccc2s1 (stereo not shown) [Cpd 63, [1-Benzo[b]thiophen-2-yl-2-(3,4-difluoro-phenyl)-ethyl]-phosphonic acid diisopropyl ester] | – | 0.3 µM | inhibition at 1 µM (HEK293, 1 μM compound, read-out: % I (1 μM)): 100%
CC(C)OP(=O)(OC(C)C)C(Cc1cccc(O)c1F)c1sc2ccccc2c1Br (racemic) [Cpd 230] | 97% | 0.01 µM | –
CC(C)OP(=O)(OC(C)C)C(Cc1cc(C(F)(F)F)cc(C(F)(F)F)c1)c1sc2ccccc2c1Cl (racemic) [Cpd 171] | 95% | 0.221 µM | –
CC(C)OP(=O)(OC(C)C)C(Cc1ccc(O)c(F)c1)c1sc2ccccc2c1Br (racemic) [Cpd 227] | 52% | – | –
CC(C)OP(=O)(OC(C)C)C(Cc1cc(F)cc(F)c1)c1sc2ccccc2c1Br (stereo not shown) [Cpd 193] | – | 0.059 µM | % I (1 μM): 103%
CCOP(=O)(OCC)C(Cc1ccc(S(=O)(=O)C(F)(F)F)cc1)c1sc2ccccc2c1Cl (racemic) [Cpd 300] | 103% | 0.089 µM | –
CCOP(=O)(OCC)C(Cc1c(Cl)cccc1Cl)c1sc2ccccc2c1C (stereo not shown) [Cpd 54] | – | 0.23 µM | % I (1 μM): 100%
CCOP(=O)(OCC)C(Cc1cccc(-c2ccncc2)c1)c1sc2ccccc2c1C (stereo not shown) [Cpd 72, [1-(3-Methyl-benzo[b]thiophen-2-yl)-2-(3-pyridin-4-yl-phenyl)-ethyl]-phosphonic acid diethyl ester] | – | – | inhibition at 1 µM [1]: 99%; IC50 (IC50 (μM)): 0.36 µM
CCOP(=O)(OCC)C(Cc1ccc(O)c(C(F)(F)F)c1)c1sc2ccccc2c1Br (racemic) [Cpd 233] | 70% | – | –
CC(=O)OCCOP(=O)(OCCOC(C)=O)C(Cc1ccc(F)c(F)c1)c1sc2ccccc2c1Br (racemic) [Cpd 213] | 100% | 0.202 µM | –
CCOP(=O)(OCC)C(Cc1cccc(N)c1)c1sc2ccccc2c1Br (stereo not shown) [Cpd 318, [2-(3-Amino-phenyl)-1-(3-bromo-benzo[b]thiophen-2-yl)-ethyl]-phosphonic acid diethyl ester] | – | – | inhibition at 0.5 µM [2]: 100%; IC50 (IC50 (μM)): 0.211 µM
[2-(3,4-Difluoro-phenyl)-1-(3-methyl-benzo[b]thiophene-2-yl)-ethyl]-methyl-phosphonic acid ethyl ester [Cpd 106] | – | 1.26 µM | % I (1 μM): 32%
CC(C)OP(=O)(OC(C)C)C(Cc1cc(C(F)(F)F)ccc1Cl)c1sc2ccccc2c1Cl (stereo not shown) [Cpd 178] | 79% | 0.355 µM | –
CCOP(=O)(OCC)C(Cc1ccccc1Br)c1sc2ccccc2c1C (stereo not shown) [Cpd 66] | – | 0.33 µM | % I (1 μM): 100%
CC(C)OP(=O)(OC(C)C)C(Cc1ccc(F)c(F)c1)c1cc2ccccc2o1 (stereo not shown) [Cpd 120] | – | 0.39 µM | % I (1 μM): 102%
CC(C)OP(=O)(OC(C)C)C(Cc1cccc(SC(F)(F)F)c1)c1sc2ccccc2c1Br (stereo not shown) [Cpd 250] | 103% | 0.048 µM | –
CCOP(=O)(OCC)C(Cc1ccccc1F)c1sc2ccccc2c1CN(C)C (stereo not shown) [Cpd 114, [1-(3-Dimethylaminomethyl-benzo[b]thiophen-2-yl)-2-(2-fluoro-phenyl)-ethyl]-phosphonic acid diethyl ester] | – | – | inhibition at 1 µM [1]: 15%

Compound | % I (0.5 μM) | IC50 (read-out: IC50) | other results
CCOP(=O)(Cc1cc2ccccc2s1)OCc1ccccc1 (stereo not shown) [Cpd 111] | – | – | % I (1 μM): 14%
CC(C)OP(=O)(OC(C)C)C(Cc1ccc(F)cc1C(F)(F)F)c1sc2ccccc2c1Br (stereo not shown) [Cpd 249] | 103% | 0.054 µM | –
CC(C)OP(=O)(OC(C)C)C(Cc1cc(F)cc(F)c1)c1cc2ccccc2s1 (stereo not shown) [Cpd 121] | – | 0.35 µM | % I (1 μM): 103%
CCOP(=O)(OCC)C(Cc1ccc(Cl)c(Cl)c1)c1sc2ccccc2c1Br (stereo not shown) [Cpd 24, [1-(3-Bromo-benzo[b]thiophen-2-yl)-2-(3,4-dichloro-phenyl)-ethyl]-phosphonic acid diethyl ester] | – | – | inhibition at 1 µM [1]: 100%; IC50 (IC50 (μM)): 0.107 µM
CCOP(=O)(OCC)C(Cc1ccc(O)cc1)c1sc2ccccc2c1Br (stereo not shown) [Cpd 324] | 54% | – | –
CCOP(=O)(OCC)C(Cc1c(F)c(F)c(OC)c(F)c1F)c1sc2ccccc2c1Br (racemic) [Cpd 160] | 87% | 0.06 µM | –
CCOP(=O)(OCC)C(Cc1cc(C(F)(F)F)ccc1F)c1sc2ccccc2c1Br (racemic) [Cpd 146] | 103% | 0.1 µM | –
CCOP(=O)(OCC)C(Cc1ccccc1OC)c1sc2ccccc2c1Br (stereo not shown) [Cpd 320] | 103% | 0.028 µM | –
CCOP(=O)(OCC)C(Cc1ccc(F)c(F)c1)c1oc2cccc(F)c2c1Br (racemic) [Cpd 206] | – | 0.098 µM | % I (1 μM): 100%
CC(C)OP(=O)(OC(C)C)C(Cc1ccccc1F)c1sc2cccc(Br)c2c1Br (stereo not shown) [Cpd 198] | – | 0.357 µM | % I (1 μM): 98%
CC(C)OP(=O)(OC(C)C)C(Cc1ccc(S(C)(=O)=O)cc1)c1sc2ccccc2c1Br (stereo not shown) [Cpd 252] | 44% | – | –
(R)-[1-(3-Bromo-benzo[b]thiophen-2-yl)-2-(4-trifluoromethoxy-phenyl)-ethyl]-phosphonic acid diisopropyl ester [Cpd 237] | 96% and 70% | – | –
CCOP(=O)(OCC)C(Cc1ccc(F)c(OC)c1)c1sc2ccccc2c1Br (stereo not shown) [Cpd 156] | – | – | inhibition at 0.5 µM [2]: 103%; IC50 (IC50 (μM)): 0.015 µM and 0.032 µM
CCOP(=O)(OCC)C(Cc1ccc(Cl)c(Cl)c1)c1cc2ccccc2s1 (stereo not shown) [Cpd 78, [1-Benzo[b]thiophen-2-yl-2-(3,4-dichloro-phenyl)-ethyl]-phosphonic acid diethyl ester] | – | – | inhibition at 1 µM [1]: 95%; IC50 (IC50 (μM)): 0.43 µM
Cc1c(C(Cc2ccc(F)c(F)c2)P(=O)(OC(C)C)OC(C)C)oc2ccccc12 (stereo not shown) [Cpd 11] | – | 0.043 µM and 0.047 µM | % I (1 μM): 99% and 103%
CCOP(=O)(OCC)C(Cc1ccc(F)c(F)c1)c1sc2cccc(C(F)(F)F)c2c1C (stereo not shown) [Cpd 84] | – | – | inhibition at 1 µM [1]: 97%; IC50 (IC50 (μM)): 0.46 µM
CCOP(=O)(Cc1cc2ccccc2s1)OCc1ccc(F)cc1 (stereo not shown) [Cpd 107] | – | 1.3 µM | % I (5 μM): 99%
CC(C)OP(=O)(OC(C)C)C(Cc1ccc(OC(F)(F)F)cc1)c1sc2ccccc2c1Cl (stereo not shown) [Cpd 187] | 103% | 0.062 µM | –
CCOP(=O)(OCC)C(Cc1ccc(OC)c(F)c1)c1sc2ccccc2c1Br (racemic) [Cpd 158] | 101% | 0.059 µM | –
CC(C)OP(=O)(OC(C)C)/C(=C/c1ccc(F)c(F)c1)c1sc2ccccc2c1Br [Cpd 334, (E)-[1-(3-Bromo-benzo[b]thiophen-2-yl)-2-(3,4-difluoro-phenyl)-vinyl]-phosphonic acid diisopropyl ester] | – | 0.11 µM | inhibition at 0.5 µM (HEK293, 0.5 μM compound, read-out: % I (0.5 μM)): 97%
CCOP(=O)(OCC)C(Cc1cccc(OC)c1F)c1sc2ccccc2c1Br (racemic) [Cpd 162] | 103% | 0.032 µM | –
CC(C)OP(=O)(OC(C)C)C(Cc1ccc(F)c(C(F)(F)F)c1)c1c(Br)c2ccccc2n1S(C)(=O)=O (stereo not shown) [Cpd 330, [1-(3-Bromo-1-methanesulfonly-1H-indol-2-yl)-2-(4-fluoro-3-trifluoromethyl-phenyl)-ethyl]-phosphonic acid diisopropyl ester] | – | 0.137 µM | –
CCOP(=O)(Cc1cc2ccccc2s1)OCc1ccccc1F (stereo not shown) [Cpd 109, Benzo[b]thiophen-2-ylmethyl-phosphonic acid ethyl ester 2-fluoro-benzyl ester] | – | – | % I (5 μM): 98%; inhibition at 1 µM [1]: 17%; IC50 (IC50 (μM)): 1.47 µM
